The results in this text go back to PMC7279002, “Novel 3′-Substituted-1′,2′,4′-Oxadiazole Derivatives of 18βH-Glycyrrhetinic Acid and Their O-Acylated Amidoximes: Synthesis and Evaluation of Antitumor and Anti-Inflammatory Potential In Vitro and In Vivo” (International Journal of Molecular Sciences, 2020).

The subject of series [1] is nontransformed human fibroblasts hFF3. Kind of series: MTT cytotoxicity assay, 48 h. In kind it is cell-based. As to conditions: Homo sapiens, HFF-3, read-out: IC50, µM Fibroblast hFF3. Here is the method: (§1) On the first step of the biological evaluation of novel GA derivatives 3a-h, 4a-h, and 5a-h, we analyzed their cytotoxicity in a panel of cultured mammalian cells, including human cervical carcinoma HeLa and KB-3-1, human duodenal carcinoma HuTu-80, human lung adenocarcinoma A549, murine melanoma B16 cell lines, and nontransformed human fibroblasts hFF3. The cells were treated with derivatives for 48 h and cell viability was evaluated by 3-(4, 5-dimethylthiazol-2-yl)-2, 5-diphenyltetrazolium bromide (MTT) assay. Since the studied compounds contain two types of functional groups at position 3-acetoxy- or the hydroxyl-group, 3-acetoxy-GA 1 and GA-Me were used as references. Additionally, hierarchical clustering of cytotoxic data was carried out in order to reveal groups of compounds with similar cytotoxic profiles (Figure 2A).
(§2) Human cervical carcinoma HeLa and KB-3-1 cells, human duodenal carcinoma HuTu-80 cells, and human lung adenocarcinoma A549 cells were obtained from the Russian Culture Collection (Institute of Cytology, RAS, St. Petersburg, Russia). Melanoma B16-F10 (hereafter, melanoma B16) cells were obtained from the Cell Culture Bank of the Blokhin National Medical Oncology Research Center (Moscow, Russia). Nonmalignant fibroblasts hFF3 and RAW264.7 macrophages were kindly provided by Dr. Olga A. Koval (Institute of Chemical Biology and Fundamental Medicine, SB RAS, Novosibirsk, Russia) and Prof. Dmitry Kuprash (Engelhardt Institute of Molecular Biology, RAS, Moscow, Russia), respectively. The cells were cultured in DMEM (Sigma-Aldrich Inc., St. Louis, MO, USA) supplemented with 10% (v/v) heat-inactivated fetal bovine serum (FBS) (BioloT, St. Petersburg, Russia) and antibiotic–antimycotic solution (100 U/mL penicillin, 100 µg/mL streptomycin, 0.25 µg/mL amphotericin). […] The cells were incubated at 37 °C in a humidified 5% CO2-containing air atmosphere (hereafter referred to as standard conditions). GA derivatives were dissolved in DMSO (stock solutions: 10 mM) and stored at −20 °C prior to use.
(§3) Cells were seeded in tetra- or pentaplicates in 96-well plates at a density of 10^4 (tumor cells and […] fibroblasts) or 10^5 (RAW264.7 cells) cells per well. Cells were incubated under standard conditions for 24 h, followed by their treatment with the investigated derivatives (0.5–50 µM) or corresponding concentrations of DMSO (control) for a further 48 h (tumor cells and fibroblasts) or 24 h (RAW264.7 cells). At the end of incubation period, 10 µL of MTT solution was added to the cells (final concentration: 0.5 mg/mL) and plates were incubated for an additional 2 h under standard conditions. Then, the MTT-containing medium was aspirated and formazan crystals formed in living cells were solubilized with 100 µL of DMSO. The absorbance of each well was read at test and reference wavelengths of 570 and 620 nm, respectively, on a Multiscan RC plate reader (Thermo LabSystems, Helsinki, Finland). The IC50 values (the concentration of compounds leading to a decrease of A570 to 50% of A570^control) were calculated by extrapolation of the dose–response curves. […] A heatmap of SI values was constructed by Microsoft Excel 2010.
(Tetrazolium assays rely on reduction of a dye to a coloured formazan, in cell work by metabolically active cells.)

Series [2] concerns human cervical carcinoma HeLa. The experiment in a line: MTT cytotoxicity assay, 48 h. In kind it is cell-based. The following applies: Homo sapiens, HeLa; MTT, 48 h; read-out: IC50, µM Cervix HeLa. How it is done: as §1, §2, §3
Series [3] concerns human duodenal carcinoma HuTu-80. Kind of series: MTT cytotoxicity assay, 48 h. Format: cell-based. The following applies: Homo sapiens, HuTu80; MTT, 48 h; read-out: IC50, µM Duodenum HuTu-80. Here is the method:
as §1, §2, §3

Series [4] relates to human cervical carcinoma KB-3-1. Kind of series: MTT cytotoxicity assay, 48 h. As to conditions: Homo sapiens, KB 3-1; MTT, 48 h; read-out: IC50, µM Cervix KB-3-1. In kind it is cell-based. Here is the method: as §1, §2, §3
Another series deals with murine melanoma B16. The experiment in a line: MTT cytotoxicity assay, 48 h. In kind it is cell-based. As to conditions: Mus musculus; MTT, 48 h. How it is done: as §1, §2, §3
Series [5] concerns human lung adenocarcinoma A549. Kind of series: MTT cytotoxicity assay, 48 h. In kind it is cell-based. The following applies: Homo sapiens, A549; MTT, 48 h. How it is done:
as §1, §2, §3

Series [6] relates to carrageenan-induced paw edema. The experiment in a line: Carrageenan-induced paw edema. In kind it is in vivo, ICR mice. As to conditions: for decrease of the weight of edema compared with vehicle-treated mice: gastric gavage 1 h before carrageenan, 5 h after induction, 3d 50 mg/kg, indomethacin 20 mg/kg. How it is done: To induce paw edema, ICR mice were injected with 1% carrageenan (50 μL) on the plantar side of the right hind paw. […] Mice were sacrificed 5 h after induction of paw edema. The percent of edema weight in carrageenan-injected compound-treated groups in comparison to that in vehicle-treated control group was calculated according to the formula: % Edema=(M1−M2/M2)^compound/∑n(M1−M2/M2)^vehicle×n×100%, where M1 is the weight of the paw with carrageenan-induced edema; M2 is the weight of the intact paws; compound and vehicle correspond to the compound- and vehicle-treated phlogogen-injected mice, respectively; and n is the number of mice in the control group (n = 9). Furthermore, paw material was collected for subsequent histological analysis.
For histological analysis, the specimens of intact and edema paws from each animal were dehydrated in ascending ethanol and xylol and embedded in HistoMix paraffin (BioVitrum, Russia). Paraffin sections (5 μm) were sliced on a Microm HM 355S microtome (Thermo Fisher Scientific, Waltham, MA, USA) and stained with hematoxylin and eosin. Images were obtained using an Axiostar Plus microscope equipped with an Axiocam MRc5 digital camera (Zeiss, Oberkochen, Germany) at ×100 and ×400 magnifications.
On the technique in general: Carrageenan injected into the paw causes an acute inflammation.

Series [7] has as its system NO synthesis by IFN-γ-induced RAW264.7 cells. Kind of series: NO production by IFNγ-stimulated macrophages (Griess). As to conditions: 10–50 µM, 24 h, IFNγ (20 ng/mL). Format: cell-based, murine. Here is the method:
(§4) RAW264.7 cells were seeded in tetraplicates in 96-well plates at a density of 10^5 cells/well and incubated under standard conditions for 24 h. The cells were treated with murine IFNγ (20 ng/mL) (Gibco, Grand Island, NY, USA) with or without (control) 3d (10–50 µM) for a further 24 h. At the end of the incubation period, the levels of TNF-α and NO in culture medium were measured using murine TNF alpha ELISA (Thermo Scientific, Frederick, MD, USA) and the Griess reagent system (Promega, Madison, WI, USA), respectively, according to manufacturers’ instructions.

Series [8] relates to murine RAW264.7 macrophages. Kind of series: MTT cytotoxicity assay, 24 h. In kind it is cell-based. As to conditions: up to 50 µM. Here is the method: as §3
Series [9] deals with TNFα production by IFN-γ-stimulated RAW264.7 cells. Kind of series: TNF-α production by IFNγ-stimulated macrophages (ELISA). In kind it is cell-based, murine. The following applies: 10–50 µM, 24 h, IFNγ (20 ng/mL). Here is the method: as §4
Series [10] relates to HeLa, KB-3-1, HuTu-80, A549, B16 and hFF3 cells. The experiment in a line: MTT cytotoxicity, summary over the panel of cell lines. Format: cell-based. How it is done: as §1, §3
Series [11] deals with carrageenan-induced peritonitis. Kind of series: Carrageenan-induced peritonitis. In kind it is in vivo, ICR mice. As to conditions: i.p. 1 h before carrageenan, 4 h; for decrease of the total leukocyte number in peritoneal exudates: 3d 50 mg/kg, dexamethasone 1 mg/kg. How it is done: To study the effect of 3d on carrageenan-induced peritonitis, ICR mice were injected with 1% carrageenan (250 μL) intraperitoneally (i.p.). Compound 3d (50 mg/kg), vehicle (10% Tween-80), dexamethasone (1 mg/kg) as a reference anti-inflammatory drug, and saline buffer were administered i.p. 1 h before peritonitis induction. The healthy uninflamed group (control) was injected i.p. by saline. Mice were sacrificed 4 h after carrageenan injection and their peritoneal cavities were washed with 2 mL of heparinized cold saline buffer to obtain peritoneal cells. The peritoneal exudates were collected and the total leukocyte counts were performed with a Neubauer chamber by optical microscopy after diluting the peritoneal fluid with Turk solution (1:20). To determine the differential leukocyte counts (total 100 cells), peritoneal cells were centrifuged and placed onto slides, stained with azur–eosin by Romanovsky–Giemsa and examined by optical microscopy. The results were expressed as the number of total leukocytes (×10^5 cells/mL) and the percentages of subpopulations of neutrophils, lymphocytes, and monocytes.

Where two headings read alike, the source gives them in different places.

A word on the IC50: it is the concentration that gives 50% inhibition. The term melting point denotes the temperature, or range, at which the solid turns liquid. Compound `CC(=O)O[C@H]1CC[C@@]2(C)C(CC[C@]3(C)C2C(=O)C=C2[C@@H]4C[C@@](C)(C(=O)O/N=C(/N)C(C)(C)C)CC[C@]4(C)CC[C@]23C)C1(C)C` (some centres unmarked) [Compound 3d] gave a melting point of 151.6 to 152.3 °C. For the same compound, the half-maximal inhibitory concentration (IC50) in series [1] was greater than 50 µM. Moreover, the IC50 in [2] is greater than 50 µM. Besides, in series [3], the IC50 is greater than 50 µM. Besides, the IC50 in series [4] is greater than 50 µM. Also, the IC50 in the series with murine melanoma B16 is greater than 50 µM. The half-inhibitory concentration (IC50) in [5] was greater than 50 µM. Also, the histology of footpads result in series [6] (50 mg/kg, gastric gavage) is given as “substantially reducing leukocyte infiltration in the dermis of the footpads”. Also, the “decrease of the weight of edema compared with vehicle-treated mice” value in series [6] was 1.7 fold. Further, in series [7], the “inhibition of NO synthesis compared with the control” value was “up to 5.3 times”. The “cytotoxicity to RAW264.7 macrophages” value in series [8] was “did not reveal cytotoxicity”. Moreover, the “suppression of TNFα production compared to the IFN-γ-stimulated control” value in series [9] was 2.2–9.0 times. Also, the “cytotoxicity in all tested cell lines” value in series [10] (all tested cell lines) is reported as “nontoxic”. Further, the IC50 in series [10] (median over all tested cell lines, read-out: median IC50) was greater than 50 µM. For the same compound, in series [10] (read-out: IC50 values with respect to all tested cell lines), the IC50 was greater than 50 µM. For the same compound, in series [11], the “distribution of leukocyte subpopulations in peritoneal fluid” value is listed as “restore leukocyte subtype content to a healthy level” and the “decrease of the total leukocyte number in peritoneal exudates” value came to 2.7 fold.

In the case of `C[C@@H]1C[C@H]2[C@@H]3CCC4=CC(=O)C=C[C@]4(C)[C@@]3(F)[C@@H](O)C[C@]2(C)[C@@]1(O)C(=O)CO` [dexamethasone, reference compound], in [11], the “distribution of leukocyte subpopulations in peritoneal fluid” value is given as “did not affect the distribution of the leukocyte subpopulation” and the “decrease of the total leukocyte number in peritoneal exudates” value stood at 1.8 fold.

With `COc1ccc2c(c1)c(CC(=O)O)c(C)n2C(=O)c1ccc(Cl)cc1` [indomethacin, reference compound], the “decrease of the weight of edema compared with vehicle-treated mice” value in [6] was “three-fold”.
